According to US8568690B2, “MRI contrast agents and high-throughput screening by MRI” (The Board of Trustees of the University of Illinois, priority 2007, dated 2013):

Columns and labels:
[1] = test system: adenosine aptamer (linker-Adap) CLIO sensor; test: Adenosine aptamer CLIO sensor, T2 weighted MRI and T2 relaxation time; assay type: binding; settings: for change in contrast of sensor (selectivity control): sensor incubated with 5 mM nucleoside
Protocol: SPIO nanoparticles were chosen as the contrast agents to functionalize by aptamers since it is efficient at dephasing the spins of neighboring water protons, leading to change in T2 [36, 37]. It has also been shown that oligonucleotide functionalized cross-linked dextran coated superparamagnetic iron oxide nanoparticles (CLIOs) form clusters when linked with a complementary sequence. The adenosine sensor comprised CLIO aggregates that are prepared using three components: CLIO functionalized with 3′- or 5′-thiol modified DNA, called 3′Adap-CLIO and 5′Adap-CLIO respectively and a linker DNA, called linker-Adap that can hybridize to both the 3′- and 5′Adap-CLIOs, leading to the formation of clusters.
One segment of the linker is the sequence for the adenosine aptamer. Seven bases of this aptamer are involved in the hybridization with the 5′Adap-CLIO. In the presence of adenosine the aptamer undergoes structure switching in order to form the adenosine binding pocket, which results in disruption of base pairing interactions with 5′Adap-CLIO. The five remaining base pairs between the linker-Adap and the 5′Adap-CLIO are not enough to hold them together at room temperature leading to disassembly of clusters. The dispersed nanoparticles result in a higher T2 as compared to the clusters; and thus the adenosine induced disassembly can be monitored as an increase in T2 values and enhancement in brightness of T2 weighted MRI images.
The prepared sensor was then aliquoted into the wells of a microplate, with progressively increasing amount of adenosine and a T2 weighted MRI image was obtained. An increase in adenosine concentration led to an increase in the brightness of the image, as illustrated in line a) of FIG. 6. This increase was attributed to the increase in T2 due to disassembly of CLIO clusters into smaller particles. It is worth noting that even at 10 μM adenosine a detectable change in contrast was observed.
250 μl of sample was aliquoted into the wells of a microplate and varying amounts of adenosine was added in each well. The samples with serum were prepared by adding 10% human serum. Volume change was compensated by addition of distilled water.

[2] = molecular target: Adenosine Deaminase (ADA) (Bos taurus, UniProt P56658); settings: adenosine and test molecule, tris-acetate buffer pH 8.0 (FIG. 19) and human serum (FIG. 20)
Sequence of Adenosine Deaminase (ADA) (P56658 whole entry): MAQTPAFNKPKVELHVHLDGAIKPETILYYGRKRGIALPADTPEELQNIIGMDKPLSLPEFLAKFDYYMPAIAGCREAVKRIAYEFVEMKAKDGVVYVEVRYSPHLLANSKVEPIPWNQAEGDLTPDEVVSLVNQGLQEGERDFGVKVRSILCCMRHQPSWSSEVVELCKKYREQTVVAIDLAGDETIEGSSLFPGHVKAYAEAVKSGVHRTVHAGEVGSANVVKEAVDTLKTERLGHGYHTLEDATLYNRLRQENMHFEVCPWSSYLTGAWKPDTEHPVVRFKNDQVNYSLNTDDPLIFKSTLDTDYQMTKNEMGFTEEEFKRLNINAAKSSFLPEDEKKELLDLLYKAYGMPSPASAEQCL
Protocol: The screening of ADA inhibitors can be monitored with an aptamer system whereby an MRI signal is generated when a molecule inhibits the ADA.
For example, an aggregate of paramagnetic particles can be used to monitor the screening. To this end, a mixture including paramagnetic particles that are attached to oligonucleotides is prepared. A bridge including an aptamer that binds adenosine is also present in the mixture. If the tested molecule is not effective in inhibiting ADA, adenosine is transformed into inosine, and the complementary portions of the oligonucleotides are hybridized to the bridge. Aggregation of the particles into an aggregate follows, and an increase in MRI contrast is not observed.
The resulting dehybridization leads to deaggregation of the aggregate, generating an MRI signal (FIG. 18).
The screening was monitored by incubating with aggregates that included CLIO nanoparticles attached to polynucleotides and a bridge comprising an ADA-binding aptamer. The screening of FIG. 19 was carried out in the presence of tris-acetate buffer at pH 8.0. […]
T2-weighted MRI images were obtained on a 4.7 T NMR instrument using a spin echo pulse sequence with variable echo time (TE=20−100 ms) and a repetition time (TR) of 2000 ms. Relaxation times were measured on the same instrument with the Carr-Purcell-Meiboom-Gill (CPMG) pulse sequence.

Nc1ccn([C@@H]2O[C@H](CO)[C@@H](O)[C@H]2O)c(=O)n1 [control molecule 37, Cytidine]
change in contrast of sensor (selectivity control) [1]: a significant change in contrast was not observed

Nc1ncnc2c1ncn2[C@@H]1O[C@H](CO)[C@@H](O)[C@H]1O [adenosine, Adenosine]
MRI contrast of sensor in serum ([1]; 10% human serum, adenosine concentration gradient): the contrast within the concentration gradient increases | adenosine concentration at which a detectable change in contrast was observed ([1]; T2 weighted MRI image, sensor ~20 μg Fe ml-1): 10 µM | T2 relaxation time of sensor ([1]; at 2.5 Mm adenosine, 36 ms at 0 adenosine): 63 ms

Nc1nc2c(ncn2[C@@H]2O[C@H](CO)[C@@H](O)[C@H]2O)c(=O)[nH]1 [guanosine]
change in contrast of sensor (selectivity control) [1]: a significant change in contrast was not observed

O=c1ccn([C@@H]2O[C@H](CO)[C@@H](O)[C@H]2O)c(=O)[nH]1 [uridine]
change in contrast of sensor (selectivity control) [1]: a significant change in contrast was not observed

erythro-9-(2-hydroxy-3-nonyl)adenine hydrochloride [EHNA]
ADA inhibition read as deaggregation of aggregates / increase in MRI brightness [2]: inhibited the conversion of adenosine into inosine
